Melting point data for 91 compounds are collected here from a melting point compilation (Tetko et al.; mined from patent text by program, amines drawn as free bases though some values may be those of a salt).

Each structure is given as a SMILES string.

In turn, `CCC12CCC3C4=C(CC(OC)=CC4)C(C)CC3C1CCC2O` (stereo unspecified) returned a melting point of 176 to 182 °C.

With `CCc1c(-c2ccc(OCc3ccccc3)cc2)c2cc(C(C)=O)c3ccc(OCc4ccccc4)c1n32`, the melting point fell in the range of 147 to 149 °C. `Clc1ccc(N(Cc2ccccc2)c2ccccc2)cc1` registered a melting point of 94 to 95 °C. The compound `O=C1OCC2Cc3ccccc3OC12` (stereo unspecified) yielded a melting point of 107 to 111 °C. For `O=C1NCc2c1cc1ccc3c(c1c2-c1ccc(OCc2ccccc2)cc1)OCO3`, the melting point lay in the range of 257 to 260 °C.

In turn, `CC(C)CN(CC(C)C)c1ccc(C(=O)c2ccccc2)cc1N` showed a melting point of 59 to 60 °C. In the case of `O=Cc1c(-c2ccccc2)nc2sc3c(n12)CCCC3` it was 150 °C; in that of `CC(C)(C)NCC(O)c1cc(Cl)c(NC(=O)c2ccccc2)c(Cl)c1` (stereo unspecified), 177 to 182 °C.

On to `Nc1ccccc1N(C=O)CCCCO`, for which the melting point fell in the range of 77 to 79 °C. On to `CCC1(C)Cc2ccc(C(C)C(=O)O)cc2C1` (stereo unspecified), for which the melting point was 165 to 167 °C. In the case of `COc1ccc(F)cc1-c1cccc(-n2cnc(-c3nc(C)no3)c2)c1` it was 153 to 158 °C. Consider `CC(C)(C)OC(=O)[C@@](C)(C#N)[C@H](c1ccccc1C(F)(F)F)c1cccc2ccccc12` (racemic), for which the melting point was 159 to 161 °C.

Compound `CC(C)COC(=O)Nc1ccc(C2(O)CCSCC2)cc1` gave a melting point of 150 to 151 °C.

With `Cc1ccsc1C(=O)Nc1ccc(C(=O)N2Cc3cccn3Cc3ccccc32)cc1`, the melting point was in the range of 232 to 235 °C. As for `CC(C)(C)c1nc(S(C)(=O)=O)n(-c2c(Cl)cc(Cl)cc2Cl)n1`, the melting point was 179 to 180 °C. In turn, `CCC12CC3CC(CC(C)(C3)C1)C2` yielded a melting point below 80 °C. With `C(=N\c1c(-c2ccccc2)cc(-c2ccccc2)cc1-c1ccccc1)/c1ccccn1`, the melting point lay in the range of 141 to 144 °C.

Consider `COCC#Cc1ncn2c1CN(C)C(=O)c1cc(F)ccc1-2`, for which the melting point fell in the range of 146 to 147 °C. `CSc1ccc(C2=C(c3ccc(C(F)(F)F)cc3)CCC2)cc1` had a melting point of 60 to 61.5 °C. Turning to `COc1ccc(/C=C/c2cc(/C=C/c3ccc4[nH]ccc4c3)n[nH]2)cc1OCc1ccccn1`, the melting point was in the range of 109 to 118 °C. Take `N#CCN1C(=O)COc2ccc([N+](=O)[O-])cc21`: the melting point was 173 °C. As for `N#Cc1cn(C2CC(O)C(CO)O2)c(=O)[nH]c1=O` (stereo unspecified), the melting point was 161 °C.

In turn, `CN(C(=O)N[C@@H](Cc1ccc(Nc2nccc3ccncc23)cc1)C(=O)O)c1ccccc1Cc1ccccc1` had a melting point of 157 °C. `Cc1cc2c(-c3cccc(C(F)(F)F)c3)nc(Cl)nc2s1` displayed a melting point of 108 °C.

With `COc1cc2cc3c(Cl)c(C#N)cnc3cc2cc1O`, the melting point is above 300 °C.

Compound `Cc1cccc2ncc(NC(=O)Nc3ccc(F)cc3F)c(-c3ccccc3Cl)c12` gave a melting point of 218 to 220 °C. In the case of `COc1cc(N)c(Cl)cc1C(=O)NCC1CCN(CCCCCC(=O)c2ccccc2)CC1` it was 138 to 141 °C.

`O=C(Nc1cn(C2CCCCO2)nc1C(=O)NCC(O)Cc1ccccc1)c1ccccn1` (stereo unspecified) yielded a melting point of 132 to 134 °C. For the compound `COC(=O)c1ccc(N2CCOCC2)c(NC(=N)N)c1`, the melting point is 152 to 154 °C. Regarding `CC(C)(Oc1ccc(NC(=O)Nc2ccc(Cl)c(Cl)c2)cc1)C(=O)O`, the melting point is 183 to 184 °C. In the case of `CCCCCCCCCCCCCCCCCCOc1cc(OCc2ccc3ccccc3n2)cc(N(CC(=O)O)CC(=O)O)c1` it was 172 to 174 °C; in that of `COC(=O)CN(N)CC(=O)OC`, 166 °C.

Turning to `CCCCN1CCCC1=NC(=O)Nc1c(C)cccc1C`, the melting point lay within 93 to 95 °C. `CC1(CC(=O)O)OCCc2c1[nH]c1ccccc21` (stereo unspecified) gave a melting point of 87 to 90 °C. The compound `CC(=O)c1c(C)[nH]c(-c2ccc(F)cc2)c1N` came in with a melting point of 211 to 212 °C. Compound `CN1CCN(c2ccnc3c(NC(=O)c4c(Cl)cccc4Cl)ccc(Cl)c23)C1=O` registered a melting point of 259 to 263 °C.

For `CC(=O)N1Cc2c(-c3noc(C4CC4)n3)ncn2-c2ccccc21`, the melting point is 187 to 188 °C.

On to `Cc1csc2c1CCN(C)CC2c1ccccc1` (stereo unspecified), for which the melting point is 40 °C. Consider `CCc1oc2ccccc2c1C(=O)c1ccc(OC)cc1`, for which the melting point was 81 °C. For `O=c1[nH]c(-c2c[nH]c3ccccc23)nc2ccc(N3CCOCC3)cc12`, the melting point is above 300 °C. Turning to `COC(=O)CCC(=O)c1ccc2oc3ccccc3c2c1`, the melting point fell in the range of 106 to 108 °C. With `CN(C(=O)c1ccco1)c1cccc(-c2nc(=O)c3ccccc3s2)n1` the figure was 186 to 187 °C; with `CC(C)(C)Nc1nc2ccc(Cl)cc2c2nc(-c3ccco3)nn12`, above 330 °C; with `CC(C)n1nc(-c2sc(NC(=O)c3cccc(Cl)c3)nc2-c2ccccc2)ccc1=O`, 173 to 174 °C.

On to `CCNc1nc2c(N)nc(C)c(C)c2n1CC(C)C`, for which the melting point was 168 to 170 °C.

In turn, `c1ccc(CSc2ccccc2C2=NOCCO2)cc1` yielded a melting point of 73 to 77 °C.

Turning to `CC(=O)N1CCC(C(=NO)c2ccc(Cl)cc2Cl)CC1`, the melting point fell in the range of 167 to 168 °C. As to `c1csc(-c2nc3ccccc3nc2OC2CCC2)c1`, the melting point turned out to be 103 °C.

`O=C1CC(OC2CCCCO2)C(CC2CCCCC2)N1` (stereo unspecified): the melting point fell in the range of 110 to 115 °C. In the case of `Cn1c(=O)sc2cc(N)ccc21` it was 188 to 190 °C. Regarding `COC(=O)c1ccccc1S(=O)(=O)NC(=O)Nc1cc(C)nc(C)n1`, the melting point fell in the range of 125 to 127 °C. Consider `CC(C)(C)OC(=O)C(N)CCNC(=O)c1ccc2c(c1)C(=O)c1ccccc1C2=O` (stereo unspecified), for which the melting point is 173 to 175 °C. With `COc1ccc2c(c1)C(=O)c1ccccc1C2=O`, the melting point lay in the range of 195 to 197 °C.

As to `CC(C)C[C@@H](CO)NC(=O)[C@H](Cc1c[nH]cn1)NC(=O)C(CNCCCc1ccccc1)Cc1cccc2ccccc12` (stereo partly specified), the melting point fell in the range of 72 to 76 °C. Consider `FC(F)(F)CNC1=NN(c2ccc(Cl)c(Cl)c2)CC1`, for which the melting point is 93 to 94 °C. As to `Brc1cccc(Sc2ncccc2OCCCc2cccnc2)c1`, the melting point lay within 75 to 76 °C.

Take `COc1cc(C(=O)N[C@@H](CCC(=O)O)C(=O)O)ccc1NCCCc1c(N)nc(N)[nH]c1=O`: the melting point fell in the range of 165 to 184 °C. As for `N#CSc1ccc(NC(=O)OCc2cccnc2)cc1`, the melting point was 188 to 191 °C.

On to `CCN(Cc1sc(-c2ccc(C(F)(F)F)cc2)nc1C)c1cc(C)c(OCC(=O)O)c(C)c1`, for which the melting point lay within 161 to 162 °C.

As to `c1ccc(-c2ncc(-c3nnc(-c4ccccc4)[nH]3)cn2)cc1`, the melting point was in the range of 280 to 282 °C. The compound `N#Cc1ccc(O)cn1` came in with a melting point of 191 to 194 °C. With `CN(CCOc1ccc(C=C2SC(=O)NC2=O)cc1)c1ccccn1` the figure was 177 to 179 °C; with `CS(=O)(=O)Cc1c(C(=O)O)ccc2c1OC(F)(F)O2`, 107 to 109 °C. In the case of `N#CCCCCN1C(=NCCCn2ccnc2)c2cccc3cccc1c23` it was 76 to 78.5 °C; in that of `CCN1c2ncc(CCc3cnc4ccccc4c3)cc2C(=O)N(C)c2ccc(F)nc21`, 154 to 156 °C; in that of `CCOC(=O)C(=O)Nc1cc(CC)c(C(=O)OCC)s1`, 103 to 105 °C. `Cc1nc(Cl)c([N+](=O)[O-])c(Cl)n1` returned a melting point of 42 to 44 °C. Compound `COC(=O)c1ccc(CNc2cc(-c3cc4cc(F)c(F)cc4[nH]3)ccc2OC)cc1` gave a melting point of 168 to 170 °C. `FC(F)(F)c1ccc2nccc(N3CCN(C(=S)NCc4ccccc4)CC3)c2c1` registered a melting point of 158 to 159 °C. Regarding `N#Cc1ccc(NC(CNCC(=O)O)[N+](=O)[O-])cc1` (stereo unspecified), the melting point stood at 230 °C. `C=CCC(C)(C)C(NC(=O)c1ccc(Cl)cc1)NC(=N[N+](=O)[O-])Nc1cccnc1` (stereo unspecified) gave a melting point of 200 to 203 °C. For the compound `Cc1oc(-c2ccccc2)nc1COc1ccc(CC(=O)O)cc1`, the melting point lay in the range of 181 to 183 °C. Regarding `Cc1ccc(S(=O)(=O)OCC2Cc3cccc(OS(=O)(=O)C(F)(F)F)c3O2)cc1` (stereo unspecified), the melting point is 60 to 63 °C. With `NC(=O)Cc1ccc2c(c1)C(=O)Cc1cccnc1S2`, the melting point was 215 to 216 °C. On to `Cc1nc2cc(C34CC5CC(CC(C5)C3)C4)cc(-c3ccc(C=C4SC(=S)NC4=O)cc3)c2o1`, for which the melting point is above 360 °C.

Consider `O=c1[nH]c(=O)n(C2CC(Cl)C(CCl)O2)cc1C=CBr` (stereo unspecified), for which the melting point was determined as 184 °C.

In turn, `CCCCn1cc(C=C2SC(=S)N(CC(=O)O)C2=O)c2ccccc21` showed a melting point of 280 to 285 °C.

`COc1cc2nc3ccccc3sc-2c(OC)c1=O` registered a melting point of 193 °C. `Cc1cccc(C(=O)O)c1N(C)S(=O)(=O)c1ccc(OCCCNC(=O)c2cc3ccccc3[nH]2)cc1` yielded a melting point of 199 °C. Consider `Cn1c(=O)cc(-c2cccc(Cl)c2)c2cc(C(=O)c3ccc(Cl)cc3)ccc21`, for which the melting point amounted to 155 °C. `Cc1c(N[C@@H](c2nnc(-c3ccc(F)c(O)c3)o2)[C@H](C)O)ccc(C#N)c1Cl` gave a melting point of 103 to 108 °C. Turning to `CC1(C)Oc2ccc(C#N)cc2[C@@H](NC(=O)c2ccc(Cl)cc2)[C@@H]1O` (relative stereo), the melting point was 226 to 229 °C. The compound `COc1ccc(-n2nc(OC(C)C)cc2-c2ccc(OCCNS(C)(=O)=O)cc2)cc1` registered a melting point of 168 °C. With `COc1cc(OC)c(F)c(N2Cc3cnc(S(C)=O)nc3N(C3CC3)C2=O)c1F` (stereo unspecified) the figure was 198 to 200 °C; with `COC(=N)COc1ccc(OC)cc1`, 95 to 96 °C; with `CC1Cc2c(cc(O)cc2C(=O)O)O1` (stereo unspecified), 225 to 227 °C. With `FC(F)(F)c1ccc(Oc2ccc3nonc3c2)cc1` the figure was 77 to 78 °C. In the case of `C#CCc1c(-c2ccccc2)nc(C)[nH]c1=O`, the melting point is 220 to 225 °C. The compound `CC1=CC(OC(=O)c2ccc(N)cc2)C(O)C(C)(C)CC1=O` (stereo unspecified) displayed a melting point of 152 to 153 °C. In turn, `COc1ccc(CCC(=O)O)c(Cl)c1Cl` yielded a melting point of 141 to 143 °C. `Cc1ccc(C(=O)C2=C(O)C(=O)N(c3ccc(C)cn3)C2c2ccc(C(C)C)cc2)cc1` (stereo unspecified) displayed a melting point of 259 to 261 °C.

The melting point is the temperature of the solid-liquid transition.
